In PMC4235214 (mBio, 2014):
Like-named read-outs stand apart in the source and are kept apart here.

Assays:
EHEC = type: cell-based, enterohemorrhagic Escherichia coli (EHEC) O157:H7
QseC = conditions: cited from earlier work
EAEC O104:H4 [1] = type: cell-based, enteroaggregative E. coli (EAEC)
S. Typhimurium = type: cell-based, Salmonella enterica serovar Typhimurium; conditions: J774 macrophages, 5 nM
[2] = 5, 20, and 80 mg/kg daily for 14 days
hERG channel = hERG channel (Homo sapiens, UniProt Q12809); assay: in vitro
EAEC O104:H4 [3] = type: cell-based, enteroaggregative E. coli (EAEC); conditions: EAEC O104:H4, 5 nM, 24 h
UPEC = type: cell-based, uropathogenic E. coli (UPEC); conditions: for reduction of biofilm formation: 24 h
[4] = test system: Pseudomonas and Klebsiella isolates; type: cell-based
[5] = test system: S. Typhimurium strain SL1344; parameters: species or system mice (BALB/c); conditions: mouse, in vivo
[6] = mouse, in vivo; cited from earlier work
in vivo = conditions: female, CD-1, mouse

hERG channel, sequence (Q12809 whole entry): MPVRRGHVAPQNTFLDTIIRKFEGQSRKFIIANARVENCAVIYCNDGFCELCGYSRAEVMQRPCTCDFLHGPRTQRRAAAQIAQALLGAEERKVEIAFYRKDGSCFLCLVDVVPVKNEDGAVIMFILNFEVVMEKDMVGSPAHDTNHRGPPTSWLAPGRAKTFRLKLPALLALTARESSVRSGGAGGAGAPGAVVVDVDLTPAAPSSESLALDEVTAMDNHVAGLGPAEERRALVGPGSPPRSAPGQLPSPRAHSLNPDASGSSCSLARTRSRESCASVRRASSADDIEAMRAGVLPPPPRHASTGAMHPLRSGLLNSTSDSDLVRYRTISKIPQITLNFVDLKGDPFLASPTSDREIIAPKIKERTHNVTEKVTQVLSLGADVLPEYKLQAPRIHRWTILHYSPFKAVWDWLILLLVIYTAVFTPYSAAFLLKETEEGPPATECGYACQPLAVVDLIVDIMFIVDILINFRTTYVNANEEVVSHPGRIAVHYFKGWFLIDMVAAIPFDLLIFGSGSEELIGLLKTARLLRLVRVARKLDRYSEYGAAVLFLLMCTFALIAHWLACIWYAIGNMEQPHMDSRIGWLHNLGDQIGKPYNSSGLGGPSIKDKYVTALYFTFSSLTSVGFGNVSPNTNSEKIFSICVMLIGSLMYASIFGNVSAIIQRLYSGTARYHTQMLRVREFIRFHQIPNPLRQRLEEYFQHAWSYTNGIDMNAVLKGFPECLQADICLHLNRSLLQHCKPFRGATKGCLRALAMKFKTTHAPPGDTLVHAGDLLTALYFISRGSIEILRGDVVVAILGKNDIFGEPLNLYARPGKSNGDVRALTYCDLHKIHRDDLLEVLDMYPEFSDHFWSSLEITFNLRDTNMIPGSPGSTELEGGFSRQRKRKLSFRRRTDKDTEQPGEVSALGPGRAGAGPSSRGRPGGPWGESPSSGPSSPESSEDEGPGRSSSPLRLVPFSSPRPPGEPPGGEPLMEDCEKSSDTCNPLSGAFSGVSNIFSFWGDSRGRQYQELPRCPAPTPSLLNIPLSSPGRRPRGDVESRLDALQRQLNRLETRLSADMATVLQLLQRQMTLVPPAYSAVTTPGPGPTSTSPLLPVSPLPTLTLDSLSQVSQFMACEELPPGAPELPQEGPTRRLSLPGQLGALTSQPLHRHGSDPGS

Compound: O=C(Nc1ccccc1)Nc1ccc(S(=O)(=O)NC2CCCCC2)cc1 [CF283, N-Cyclohexyl-4-(3-phenylureido)benzenesulfonamide]
- expression of ler and stx2a (EHEC): significantly reduced

Compound: O=S(=O)(Nc1ccccc1)c1ccc(NC(=S)Nc2ccccc2)cc1 [LED209, N-phenyl-4-(3-phenylthioureido)benzenesulfonamide]
- QseC binding to its signals and autophosphorylation (QseC): preventing binding to its signals and consequently its autophosphorylation
- expression of stx2a (EAEC O104:H4 [1]): significantly reduced
- decrease of survival of S. Typhimurium within macrophages (S. Typhimurium): 4 logs
- liver toxicity [2]: no liver toxicity
- toxicity [2]: did not present any toxicity
- inhibition at 10 µM (hERG channel): 4%
- reduction of biofilm formation (EAEC O104:H4 [3]): 37%
- reduction in biofilm formation (UPEC; UPEC clinical isolate 6): 43%
- reduction in biofilm formation (UPEC; UPEC clinical isolate 8): 48%
- reduction in biofilm formation (UPEC; UPEC clinical isolate 25): 43%
- reduction of biofilm formation (UPEC; UPEC strain CFT073, 5 nM, not significant): 8%
- reduction of biofilm formation (UPEC; UPEC strain UTI89, 5 nM): 35%
- reduction of biofilm formation ([4]; clinical isolate 18): 26%
- reduction of biofilm formation ([4]; clinical isolate 20): 21%
- penetration of the blood-brain barrier (20 mg/kg): limited
- peak concentrations in plasma (at each oral dose): high
- exposures versus dose (oral doses above 80 mg/kg): increased less than proportionally
- oral bioavailability (oral gavage, mice): good
- pharmacokinetics by the oral route (oral gavage, mice): nonlinear
- mice remained alive [5]: 43%
- mice remained alive ([5]; 20 mg/kg): 60%
- mice survived ([5]; po, 20 mg/kg): 50%
- pharmacokinetics via the intravenous route [6]: linear
- half-life (in vivo): 0.667 to 1.67 h
- expression of key virulence genes (ler, tir, stx2a) (EHEC): phenocopied a qseC mutation
- expression of ler and stx2a (EHEC): works as well as all of our previous LED209 batches
- expression of the virulence genes (LEE: ler, tir) (EHEC): nonresponsive
- expression of the virulence genes (ler) (EHEC): did not respond

Compound: COc1ccccc1NC(=O)Nc1ccc(S(=O)(=O)Nc2ccccc2)cc1 [CF287, 4-(3-(2-Methoxyphenyl)ureido)-N-phenylbenzenesulfonamide]
- expression of ler and stx2a (EHEC): lost the antagonist activity

Compound: O=C(Nc1ccc(S(=O)(=O)Nc2ccccc2)cc1)Nc1nncs1 [CF290, 4-(3-(1,3,4-Thiadiazol-2-yl)ureido)-N-phenylbenzenesulfonamide]
- increase of ler (EHEC): 2 fold

Compound: O=C(Nc1ccccc1)Nc1ccc(NS(=O)(=O)c2ccccc2)cc1 [CF252, N-(4-(3-Phenylureido)phenyl)benzenesulfonamide]
- expression of ler and stx2a (EHEC): reversed the antagonist behavior
